Earlier results as cited in patent US9683008B2, “Synthetic bile acid compositions and methods” (Kythera Biopharmaceuticals, Inc., priority 2010, dated 2017).

Legend:
[1] = neutral pH
[2] = molecular target: albumin (Homo sapiens, UniProt P02768); conditions: 0.4 mg/mL deoxycholate (comparable to the fasting state), in the presence of 26 mg/mL of albumin
Sequence of albumin (P02768 25-609): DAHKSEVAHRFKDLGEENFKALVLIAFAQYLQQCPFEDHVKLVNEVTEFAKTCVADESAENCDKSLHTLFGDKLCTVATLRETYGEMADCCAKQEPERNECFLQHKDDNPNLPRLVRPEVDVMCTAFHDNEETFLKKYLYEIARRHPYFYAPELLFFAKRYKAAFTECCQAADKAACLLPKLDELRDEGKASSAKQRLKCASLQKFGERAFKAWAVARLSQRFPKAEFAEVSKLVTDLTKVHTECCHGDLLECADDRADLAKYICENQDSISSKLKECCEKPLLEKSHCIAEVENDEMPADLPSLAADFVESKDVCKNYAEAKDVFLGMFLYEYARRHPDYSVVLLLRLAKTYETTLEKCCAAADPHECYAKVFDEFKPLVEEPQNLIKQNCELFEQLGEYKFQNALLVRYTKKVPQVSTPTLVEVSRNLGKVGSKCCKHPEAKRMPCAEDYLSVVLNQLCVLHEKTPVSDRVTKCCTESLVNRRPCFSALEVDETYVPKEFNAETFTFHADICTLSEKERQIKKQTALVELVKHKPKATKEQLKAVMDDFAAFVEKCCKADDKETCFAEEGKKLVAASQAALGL

Question: With `C[C@H](CCC(=O)[O-])[C@H]1CC[C@H]2[C@@H]3CC[C@@H]4C[C@H](O)CC[C@]4(C)[C@H]3C[C@H](O)[C@]12C.[Na+]` [sodium deoxycholate] as the molecule, how does the solubility in acetone (acetone, compared with alcohol) read?
Answer: The solubility in acetone was “even less soluble”.

Question: What about the “solubility in glacial acetic acid” value (glacial acetic acid, compared with alcohol) of the same molecule?
Answer: The value was “even less soluble”.

Question: And the soluble in water (water)?
Answer: Its soluble in water is 333 mg/mL.

Question: And the critical micelle concentration [1]?
Answer: Its critical micelle concentration is “approximately 2.4 mg/mL”.

Question: And the bound to albumin [2]?
Answer: Its bound to albumin is 98%.
